# Laboratory results as given in US10525044B2, “Treatment for chemotherapy-induced peripheral neuropathy” (priority 2013, dated 2020).
# Where “and” joins values, the source holds several entries; their conditions need not be identical. Equal values may be shown once. Entries after “also recorded” stand apart in the source; their conditions may differ.
# Key:
# [1] = system: staurosporine-induced apoptosis; settings: cited from earlier work
# [2] = system: middle cerebral artery occlusion (MCAo); settings: cited from earlier work
# [3] = system: human lung cancer cell line H460; assay: Cell density of H460 cells (phase contrast); format: cell-based
# Description: (§1) Cancer Cell Culture. The mouse liver cancer cell line BNLT3 (gift of Dr. Jack Wands, Brown University) and the human lung cancer cell line H460 (ATCC) were seeded into 96-well plates at a density of 4,000 cells/well and cultured at 37° C., 5% CO2, in DMEM (11965, Gibco) supplemented with 10% fetal bovine serum, 20 mM HEPES, 1 mM sodium pyruvate, and […] gentamycin (all reagents came from Gibco).
# (§2) Cell Insults and Treatments. Determination of concentration for each anticancer drug in our experiments was based on its reported concentration in human cerebral spinal fluid (CSF) in chemotherapy, literature report of its neurotoxicity in culture, and our preliminary in vitro experimental data. At 13 d.i.v., the neuronal cell cultures were insulted with 100 μM of MTX (M9929, Sigma), 25 μM of 5-FU (F6627, Sigma), or 3.5 μM of CDDP (sc-200896, Santa Cruz) for 3 days in absence or presence of PAN 811.Cl.H2O. For ROS examination, the neurons were insulted with both 100 μM of MTX and 25 μM of 5-FU by 15 d.i.v. PAN-811.Cl.H2O was added to cultures to final concentrations of 1.25, 2.5, 5, and 10 μM at the same time as addition of the anticancer drugs. For cancer cell lines, the cells were insulted by the second day of cell seeding with the same concentration of MTX, 5-FU, or CDDP as used in neuronal culture in the absence or presence of 10 μM PAN-811.Cl.H2O for another 3 days.
# (§3) Quantitative Assays and Morphological Assessment. Cell membrane integrity and mitochondrial function of either neurons or cancer cells were measured with LDH and 3-(4,5-dimethylthiazol-2-yl)-5-(3-carboxymethoxyphenyl)-2-(4-sulfophenyl)-2H-tetrazolium [MTS] analyses, respectively. The latter has been used to quantify cell survival. For the LDH assay, a mixture of a 35 μL aliquot of culture supernatant and 17.5 μL of Mixed Substrate, Enzyme and Dye Solutions (Sigma) was incubated at room temperature (RT) for 30 minutes. For the MTS assay, 10 μL of MTS reagent (Promega) was added to a culture well containing neurons in 50 μL of medium. The preparations were incubated at 37° C. for 2 hours. The preparations for both assays were then spectrophotometrically measured at 490 nm using a 96-well plate reader (Mode 550, Bio-Rad). Neuronal cell death was morphologically determined based on the integrity of the cell soma and continuity of neuronal processes. The change in number of cancer cells was judged directly by cell density. Cells were photographed under an inverted phase contrast microscope (IX 70, Olympus) using 10× or 20× objective.
# [4] = system: hydrogen peroxide-induced LDH release; settings: cited from earlier work
# [5] = system: intracellular free calcium; settings: 5 μM; ischemic condition (19-fold increase); cited from earlier work
# [6] = system: mixed cortical and striatal neurons; assay: MTS assay (cell viability) in neuronal cell culture; format: cell-based
# Description: Neuronal Cell Culture. Mixed cortical and striatal neurons fromembryonic day 17 male Sprague-Dawley rats (tissue obtained from NIH) were seeded into poly-D-lysine coated 96-well plates at density of 50,000 cells/well and initially cultured at 37° C., 5% CO2, in neurobasal medium (NB) with B27 supplement (Invitrogen) containing full strength of AOs to obtain highly enriched (95%) neurons. Since AOs, including vitamin E, vitamin E acetate, superoxide dismutase (SOD), catalase (CAT), and GSH, are additives to culture medium, reduction of AO concentration in culture medium provides an approach to determine the level of OS involvement in a neurotoxic process. In our study, the culture medium was replaced at a 50% ratio with NB plus B27 minus AOs twice at days 7 and 9 to set AO concentrations as 50% and 25%, respectively. At 16 days in vitro (d.i.v.), a fraction of the culture medium was harvested for lactate dehydrogenase (LDH) assay, and then AO concentration was reduced to 12.5% and cultured for a further 5 hours prior to ending the experiment.
# as §2, §3
# (§4) Data Analysis. Data were generated from 4-6 replicate wells, expressed as mean±standard deviation (SD), and statistically evaluated at a significance level of 1% with one factor ANOVA or Student's t-test by using software VASSARSTATS (http://vassarstats.net/) followed by the Tukey HSD test. Figure symbols are as follows: #, P<0.05, and ##, P<0.01, compared with control; *, P<0.05, and **, P<0.01, compared with the insulted group; §§, P<0.01, compared with PAN-811 treated group by Student's t-test.
# [7] = system: human lung cancer cell line H460; assay: LDH assay (membrane integrity) in H460 cancer cells; format: cell-based
# Description: as §1
# as §2, with “[…] […]” for “At 13 d.i.v., the neuronal cell cultures were insulted with 100 μM of MTX (M9929, Sigma), 25 μM of 5-FU (F6627, Sigma), or 3.5 μM of CDDP (sc-200896, Santa Cruz) for 3 days in absence or presence of PAN 811.Cl.H2O. For ROS examination, the neurons were insulted with both 100 μM of MTX and 25 μM of 5-FU by 15 d.i.v.”
# as §3, §4
# [8] = system: sodium channel; settings: cited from earlier work
# [9] = 3.5 μM CDDP and 10 μM PAN-811, 3 days
# [10] = 100 μM MTX and 10 μM PAN-811, 3 days
# [11] = each agent alone, 3 days: MTX 100 μM, 5-FU 25 μM, CDDP 3.5 μM, PAN-811 10 μM
compound,measurement,setting,value
"NC(=S)N/N=C/c1ncccc1N [PAN-811, 3-aminopyridine-2-carboxaldehyde thiosemicarbazone]",staurosporine-induced apoptosis,[1],prevents
same,reduction of mortality,[2]; PAN-811 treated groups collectively,44%
same,reduction in brain edema volume,"[2]; i.v., 2 mg/kg",70%
same,"reduction of infarct volume, maximal protection","[2]; single i.v. bolus, 2 mg/kg",50%
same,"cell density, cotreatment with CDDP",[3]; [9],greatly decreased the cell density
same,"cell density, cotreatment with 5-FU","[3]; 25 μM 5-FU and 10 μM PAN-811, 3 days",robustly decreased the cell density
same,"cell density, cotreatment with MTX",[3]; [10],robustly decreased the cell density
same,cell density,[3]; [11],robustly decreased the cell density; also recorded: greatly decreased the cell density
same,suppression of hydrogen peroxide-induced LDH release,"[4]; 1 μM, vs untreated/H2O2-insulted group",78%
same,"suppression of hydrogen peroxide-induced LDH release, maximal protection","[4]; 10 μM, vs untreated and H2O2-insulted group",90%
same,EC50,"[4]; read-out: EC50, protection against hydrogen peroxide-induced LDH release",~550 nM
same,reduction of elevated intracellular free calcium,[5],72%
same,inhibition of CDDP-induced MTS reduction,"[6]; 10 μM PAN-811, 3.5 μM CDDP, 12.5% AO",48%
same,5-FU-induced MTS reduction,"[6]; 10 μM PAN-811, 25 μM 5-FU, 12.5% AO",completely blocked
same,"5-FU- or CDDP-induced MTS reduction, dose dependence","[6]; neurons in 12.5% AO, PAN-811 1.25-10 μM",dose-dependently inhibited
same,"increase in LDH reading, cotreatment with CDDP",[7]; [9],57%
same,"effect on MTX-, 5-FU-, or CDDP-induced membrane leakage",[7]; 10 μM PAN-811,inhibitory effect
same,"reduction of LDH reading compared with MTX group, cotreatment",[7]; [10],70%
same,increase in LDH reading in culture supernatant,[7]; [11],31% and 30%
same,veratridine-induced sodium channel opening related to Ca2+ influx,[8],prevents
